# Key:
# Puccinia spores [1] = assay: Translocation of glyphosate to shielded wheat leaf for leaf rust prevention; type: in vivo
# Source text: In the data shown in FIG. 1, the top fully expanded wheat leaf was shielded from Roundup® spray (0-1×, 1× at 0.75 lb ae/a) followed by inoculation of wheat rust spores to the shielded leaf at 1 day after treatment (DAT).
# 14C-glyphosate is sprayed over-the-top to wheat plants using field application conditions and use rates. The top fully-expanded leaf (one leaf) is shielded from the spray (the untreated leaf).
# [2] = Glyphosate residue analysis in RR canola; type: in vivo; settings: 0.8 lb, seed
# Source text: (§1) The selection of application rates that are effective for a specific plant pathogen is within the skill of the ordinary agricultural scientist. […] Useful application rates for the glyphosate compositions employed can depend upon all of the above conditions.
# corn EPSPS [3] = assay: Kinetic studies of EPSPS inhibition by glyphosate; type: biochemical; settings: equivalent of 0.5 μM
# Source text: Structural studies of EPSPS based on X-ray crystallography have identified key amino acids involved in catalysis.
# [4] = tested on: Verticillium wilt (Verticillium dahliae); assay: Verticillium wilt control in Roundup Ready cotton; type: in vivo; settings: three genetic backgrounds, 22 ounces of WeatherMax Roundup at two and five true leaf stage, observed about three and four months after planting, versus adjacent untreated plot
# Source text: The cotton seeds were planted and the emerged plants were sprayed with 22 ounces of WeatherMax Roundup® at the two and five true leaf stage. […] The treated plants continued to grow compared to the untreated plants that had shut down. […] Cotton plants suffering from other wilt diseases of cotton, especially Fusarium wilt disease, are expected to benefit from treatment with glyphosate.
# Pyricularia = type: cell-based; settings: growth media, crop of interest Rice
# [5] = Glyphosate residue analysis in RR sugarbeet; type: in vivo
# Source text: as §1
# Asian soybean rust [6] = assay: Field trial of glyphosate and Opera fungicide on Asian soybean rust; type: in vivo, Phakopsora pachyrhizi
# Method: A field study was conducted to further confirm the greenhouse study. The same cultivars were planted in three replicated plots and treatments as described in the greenhouse study. […] All treatments were effective in preventing disease on RR8045 cultivar.
# [7] = Glyphosate residue analysis in RR cotton; type: in vivo; settings: 3 × 1.5 lb, OT/PD/PH, seed
# Source text: as §1
# [8] = tested on: Asian soybean rust (Phakopsora pachyrhizi); assay: Field observation of Asian soybean rust in glyphosate tolerant soybean; type: in vivo; settings: Brazil
# Method: Asian soybean rust is an aggressive foliar disease of soybean that occurs where soybeans are grown in Asia, and more recently, in southern Africa, Paraguay, Argentina and Brazil. Phakopsora pachyrhizi, the fungus that causes Asian soybean rust, has been found in the continental United States. Glyphosate compositions are used to control, prevent or treat disease in glyphosate tolerant soybean plants (RR) under field conditions. A single application rate of Roundup® (1×=0.75 lbs ae/acre or 0.84 kg ae/ha) or multiple applications are applied times to a rust susceptible variety of soybean. The Roundup® treated plants are not treated with any fungicide and allowed to be naturally infected with Asian soybean rust. In addition, glyphosate-tolerant soybean plants can be grown in a greenhouse and manually infected with spores to induced disease infection.
# Rust development is delayed 7-10 days in RR soybean (sprayed at ˜V4 stage), as compared to conventional soy. Rust severity is less in RR soybean as compared to conventional soybean in early season observations.
# Fusarium = assay: In vitro fungal cell growth on media containing glyphosate; type: cell-based; settings: crop of interest Wheat/potato
# Puccinia = assay: as above; type: cell-based; settings: crop of interest Wheat
# rust spores = assay: Glyphosate as post-infection treatment of glyphosate tolerant wheat; type: in vivo; settings: evaluated 11 DAI
# Method: Depending on the treatment to be used, the spores are then allowed to germinate. […] Disease incidence is evaluated 11 DAI.
# [9] = Glyphosate residue analysis in RR soybean; type: in vivo; settings: 3 × 0.75 lb, V3/R1/PH
# Source text: as §1
# [10] = Glyphosate residue analysis in RR wheat; type: in vivo
# Source text: as §1
# Septoria = assay: In vitro fungal cell growth on media containing glyphosate; type: cell-based; settings: crop of interest Wheat
# [11] = Glyphosate residue analysis in RR corn (GA21); type: in vivo; settings: 2 × 0.75 lb
# Source text: as §1
# corn EPSPS [12] = settings: read-out: Ki for glyphosate; cited from earlier work
# Asian soybean rust [13] = assay: Greenhouse study of glyphosate and Opera fungicide on Asian soybean rust; type: in vivo, Phakopsora pachyrhizi
# Phytophthora = assay: In vitro fungal cell growth on media containing glyphosate; type: cell-based; settings: crop of interest Potato/soy
# Pseudocercosporella = assay: as above; type: cell-based; settings: crop of interest Wheat
# [14] = tested on: Common rust or Southern rust spores (Puccinia sorghi, Puccinia polysora); assay: Field tests of glyphosate on rust diseases of Roundup Ready corn nk603; type: in vivo; settings: 1 to 9 scale
# [15] = Glyphosate residue analysis in RR rice; type: in vivo
# Source text: as §1
# Botrytis = assay: In vitro fungal cell growth on media containing glyphosate; type: cell-based; settings: crop of interest Veg/strawberry
# Rhizoctonia = assay: as above; type: cell-based; settings: crop of interest Wheat/potato
# [16] = Glyphosate residue analysis in RR potato; type: in vivo; settings: tubers
# Source text: as §1
# Puccinia spores [17] = assay: Tissue glyphosate concentration and disease prevention in glyphosate tolerant wheat; type: in vivo
# Method: Four different regimens are employed. […] The inoculated plants are then incubated for 24 hours at 100% relative humidity for germination of the spores. […] Disease conditions are evaluated macroscopically for pustule development and lesion development.
# Gaeumannomyces = assay: In vitro fungal cell growth on media containing glyphosate; type: cell-based; settings: crop of interest Wheat
smiles,measurement,setting,value
"O=C(O)CNCP(=O)(O)O [glyphosate, N-phosphonomethylglycine]",tissue glyphosate at which complete disease prevention was attained,"Puccinia spores [1]; shielded (untreated) wheat leaf, spray application of ½× of Roundup, inoculated 1DAT",1.3 ppm
same,disease incidence versus spray dose,"Puccinia spores [1]; shielded wheat leaf, 11 days after inoculation, 0-1× spray",decrease in disease incidence with an increase in spray dose
same,Gly (ppm),[2],0.02 ppm
same,Ki expressed as glyphosate in plant tissues,corn EPSPS [3],approximately 0.15 ppm
same,wilt symptoms,[4],reduced symptoms
same,"In vitro EC90, ppm",Pyricularia,5000 ppm
same,Gly (ppm),"[5]; 3 × 0.75, 2 lf/12 lf/12 lf + 30 d, beet",6.60 ppm
same,Gly (ppm),"[5]; 3 × 0.75, 2 lf/12 lf/12 lf + 30 d, tops",4.30 ppm
same,Gly (ppm),"[5]; 3 × 0.75 lb, 2 lf/6 lf/12 lf, beet",0.50 ppm
same,Gly (ppm),"[5]; 3 × 0.75 lb, 2 lf/6 lf/12 lf, tops",0.40 ppm
same,%_disease,"Asian soybean rust [6]; RR8000, glyp 1X",23.3%
same,%_disease,"Asian soybean rust [6]; RR8000, glyp 2X",10.0%
same,%_disease,"Asian soybean rust [6]; RR8045, glyp 1X",0.0%
same,%_disease,"Asian soybean rust [6]; RR8045, glyp 2X",1.7%
same,Gly (ppm),[7],1.60 ppm
same,rust severity,"[8]; RR soybean compared to conventional soybean, early season observations",less
same,delay of rust development,"[8]; RR soybean sprayed at ~V4 stage, compared to conventional soy",7 to 10 days
same,"In vitro EC90, ppm",Fusarium,1000 ppm
same,"In vitro EC90, ppm",Puccinia,5000 ppm
same,development of pustules,"rust spores; 1× glyphosate at 4DAI, lesions already present at treatment",no development of pustules
same,infection level,"rust spores; wheat 3-leaf stage, 1× glyphosate after inoculation, untreated/surfactant between 10% and about 25%",either no infection or no progression to an existing infection
same,Gly (ppm),[9]; forage,7.60 ppm
same,Gly (ppm),[9]; hay,1.30 ppm
same,Gly (ppm),[9]; seed,0.80 ppm
same,Gly (ppm),"[10]; 0.75 lb, 4 lf, forage",2.30 ppm
same,Gly (ppm),"[10]; 0.75 lb, 4 lf, grain",0.50 ppm
same,Gly (ppm),"[10]; 0.75 lb, 4 lf, hay",1.20 ppm
same,Gly (ppm),"[10]; 0.75 lb, 4 lf, straw",0.50 ppm
same,Gly (ppm),"[10]; 2 × 0.75 lb, 4 lf/Preboot, forage",2.60 ppm
same,Gly (ppm),"[10]; 2 × 0.75 lb, 4 lf/Preboot, grain",7.50 ppm
same,Gly (ppm),"[10]; 2 × 0.75 lb, 4 lf/Preboot, hay",13.00 ppm
same,Gly (ppm),"[10]; 2 × 0.75 lb, 4 lf/Preboot, straw",5.30 ppm
same,"In vitro EC90, ppm",Septoria,<100 ppm
same,Gly (ppm),"[11]; V4/V8, forage",0.73 ppm
same,Gly (ppm),"[11]; V4/V8, grain",0.07 ppm
same,Gly (ppm),"[11]; V4/V8, stover",1.30 ppm
same,Ki,corn EPSPS [12],500 nM
same,percent disease of Asian soybean rust,"Asian soybean rust [13]; RR8000, Trt 2 glyp 1X every two weeks from V3, 14 d-1 spray",23.3%
same,percent disease of Asian soybean rust,"Asian soybean rust [13]; RR8000, Trt 2 glyp 1X every two weeks from V3, 28 d-2 sprays",41.7%
same,percent disease of Asian soybean rust,"Asian soybean rust [13]; RR8000, Trt 2 glyp 1X every two weeks from V3, 42 d-3 sprays",48.3%
same,percent disease of Asian soybean rust,"Asian soybean rust [13]; RR8000, Trt 2 glyp 1X every two weeks from V3, 56 d-4 sprays",88.3%
same,percent disease of Asian soybean rust,"Asian soybean rust [13]; RR8000, Trt 3 glyp 2X every two weeks from V3, 14 d-1 spray",10.0%
same,percent disease of Asian soybean rust,"Asian soybean rust [13]; RR8000, Trt 3 glyp 2X every two weeks from V3, 28 d-2 sprays",10.0%
same,percent disease of Asian soybean rust,"Asian soybean rust [13]; RR8000, Trt 3 glyp 2X every two weeks from V3, 42 d-3 sprays",10.0%
same,percent disease of Asian soybean rust,"Asian soybean rust [13]; RR8000, Trt 3 glyp 2X every two weeks from V3, 56 d-4 sprays",30.0%
same,percent disease of Asian soybean rust,"Asian soybean rust [13]; RR8045, Trt 2 glyp 1X every two weeks from V3, 14 d-1 spray",50.0%
same,percent disease of Asian soybean rust,"Asian soybean rust [13]; RR8045, Trt 2 glyp 1X every two weeks from V3, 28 d-2 sprays",56.7%
same,percent disease of Asian soybean rust,"Asian soybean rust [13]; RR8045, Trt 2 glyp 1X every two weeks from V3, 42 d-3 sprays",71.7%
same,percent disease of Asian soybean rust,"Asian soybean rust [13]; RR8045, Trt 2 glyp 1X every two weeks from V3, 56 d-4 sprays",86.7%
same,percent disease of Asian soybean rust,"Asian soybean rust [13]; RR8045, Trt 3 glyp 2X every two weeks from V3, 14 d-1 spray",3.3%
same,percent disease of Asian soybean rust,"Asian soybean rust [13]; RR8045, Trt 3 glyp 2X every two weeks from V3, 28 d-2 sprays",10.0%
same,percent disease of Asian soybean rust,"Asian soybean rust [13]; RR8045, Trt 3 glyp 2X every two weeks from V3, 42 d-3 sprays",13.3%
same,percent disease of Asian soybean rust,"Asian soybean rust [13]; RR8045, Trt 3 glyp 2X every two weeks from V3, 56 d-4 sprays",73.3%
same,"In vitro EC90, ppm",Phytophthora,1000 ppm
same,"In vitro EC90, ppm",Pseudocercosporella,<100 ppm
same,average disease rating,"[14]; hybrid corn, treatment #1 (pre-inoculation), 2× rate (1.5 lb./A), 1=resistant, 9=susceptible, control 4.1",3.6
same,disease rating,"[14]; hybrid corn, treatment #1 (pre-inoculation), 3× rate (2.25 lb./A), control 4.1",3.0
same,disease rating,"[14]; hybrid corn, treatment #2 (14 days post inoculation), control 4.1",4.1
same,disease rating,"[14]; hybrid corn, treatment #3 (28 days post inoculation), control 4.1",3.9
same,disease rating,"[14]; inbred corn, post inoculation treatments, second value",4.9
same,disease rating,"[14]; inbred corn, post inoculation treatments",4.4
same,average disease rating,"[14]; inbred corn, treatment #1 (pre-inoculation), 2× rate, controls 5.0 and 4.9",4.0
same,average disease rating,"[14]; inbred corn, treatment #1 (pre-inoculation), 3× rate, controls 5.0 and 4.9",3.2
same,Gly (ppm),"[15]; 1.5 lb 5 lf, grain",0.05 ppm
same,Gly (ppm),"[15]; 1.5 lb 5 lf, straw",0.05 ppm
same,Gly (ppm),"[15]; 2 × 1.12 lb, 5 lf/pan ini, grain",3.00 ppm
same,Gly (ppm),"[15]; 2 × 1.12 lb, 5 lf/pan ini, straw",3.10 ppm
same,Gly (ppm),"[15]; 3 × 1.12 lb, 5 lf/pan ini/PH, grain",14.80 ppm
same,Gly (ppm),"[15]; 3 × 1.12 lb, 5 lf/pan ini/PH, straw",6.90 ppm
same,"In vitro EC90, ppm",Botrytis,<100 ppm
same,"In vitro EC90, ppm",Rhizoctonia,1000 ppm
same,Gly (ppm),"[16]; 2 × 1.5 lb, 2 lf/row closure",4.10 ppm
same,Gly (ppm),"[16]; 3 × 1.5 lb, 2 lf/row clo/PH",8.60 ppm
same,pustule development,"Puccinia spores [17]; 12 days after inoculation, wheat treated with 1× spray, inoculated 1 day or 14 days after treatment, controls about 25% to about 30%",less than 1%
same,tissue concentration of glyphosate at which pustule development is prevented,Puccinia spores [17]; glyphosate tolerant wheat leaf,about 10 ppm
same,"In vitro EC90, ppm",Gaeumannomyces,1000 ppm

# Reference: US10575526B2 (priority 2004, dated 2020)
